Laboratory results taken from publication PMC6152084, “Synthesis of New Hydrazone Derivatives for MAO Enzymes Inhibitory Activity” (Molecules : A Journal of Synthetic Chemistry and Natural …, 2017).

Legend:
hMAO-A = target: T1, hMAO-A (Homo sapiens, UniProt P21397); experiment: MAO-A inhibition assay (in vitro fluorometric Amplex Red method); type: biochemical
T1 construct: purchased Sigma-Aldrich (Steinheim, Germany)
T1 sequence (P21397 1-527): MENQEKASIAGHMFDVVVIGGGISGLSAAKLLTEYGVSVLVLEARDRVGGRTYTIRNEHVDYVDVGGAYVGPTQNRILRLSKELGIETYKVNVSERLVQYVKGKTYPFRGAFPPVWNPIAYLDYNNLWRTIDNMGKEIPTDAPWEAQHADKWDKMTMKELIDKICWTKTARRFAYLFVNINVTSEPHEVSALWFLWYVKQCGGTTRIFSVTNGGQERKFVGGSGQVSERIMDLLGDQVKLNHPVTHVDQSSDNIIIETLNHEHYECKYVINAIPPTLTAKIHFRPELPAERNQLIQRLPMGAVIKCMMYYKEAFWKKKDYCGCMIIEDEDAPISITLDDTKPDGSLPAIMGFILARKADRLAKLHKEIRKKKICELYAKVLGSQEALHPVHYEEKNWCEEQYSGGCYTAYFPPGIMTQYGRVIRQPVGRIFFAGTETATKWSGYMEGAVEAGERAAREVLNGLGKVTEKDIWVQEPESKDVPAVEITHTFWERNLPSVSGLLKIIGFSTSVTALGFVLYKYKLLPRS

hMAO-B = target: T2, hMAO-B (Homo sapiens, UniProt P27338); experiment: MAO-B inhibition assay (in vitro fluorometric Amplex Red method); type: biochemical
T2 construct: purchased Sigma-Aldrich (Steinheim, Germany)
T2 sequence (P27338 1-520): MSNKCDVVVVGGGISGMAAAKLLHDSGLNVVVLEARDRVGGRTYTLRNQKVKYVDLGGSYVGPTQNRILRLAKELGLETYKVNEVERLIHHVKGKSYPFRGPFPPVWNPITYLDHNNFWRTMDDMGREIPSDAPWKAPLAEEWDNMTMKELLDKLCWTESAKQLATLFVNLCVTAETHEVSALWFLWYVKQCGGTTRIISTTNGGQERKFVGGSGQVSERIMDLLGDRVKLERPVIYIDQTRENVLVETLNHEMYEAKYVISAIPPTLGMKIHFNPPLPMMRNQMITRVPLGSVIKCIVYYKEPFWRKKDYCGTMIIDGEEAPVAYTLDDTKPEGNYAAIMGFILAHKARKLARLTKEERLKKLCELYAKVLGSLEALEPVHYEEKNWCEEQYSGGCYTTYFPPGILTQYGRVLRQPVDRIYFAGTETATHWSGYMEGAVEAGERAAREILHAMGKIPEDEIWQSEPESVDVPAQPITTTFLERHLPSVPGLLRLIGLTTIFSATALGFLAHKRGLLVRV

Row | Structure (SMILES) | inhibition at 1000 µM (hMAO-A; 10^−3 M) | inhibition at 100 µM (hMAO-A; 10^−4 M) | melting point | inhibition at 1000 µM (hMAO-B; 10^−3 M) | inhibition at 100 µM (hMAO-B; 10^−4 M) | further results
1 | COc1ccc(N2CCN(c3ccc(C=NNc4ccccc4)cc3)CC2)cc1 [Compound 2d, 1-(4-(4-(4-Methoxyphenyl)piperazine-1-yl)benzylidene)-2-phenylhydrazine] | 68.6 ± 1.5% | 40.2 ± 0.97% | 141.2 to 150.4 °C | 39.2 ± 0.863% | 30.6 ± 0.613% | 
2 | CN(C)CCN1CCN(c2ccc(C=NNc3ccccc3)cc2)CC1 [Compound 2m] |  |  |  |  |  | MAO-A Inhibition % (hMAO-A; 10^−3 M): 68.276 ± 1.048%; MAO-A Inhibition % (hMAO-A; 10^−4 M): 39.471 ± 0.719%; MAO-B Inhibition % (hMAO-B; 10^−3 M): 41.072 ± 0.732%; MAO-B Inhibition % (hMAO-B; 10^−4 M): 27.607 ± 0.961%
3 | C(=NNc1ccccc1)c1ccc(N2CCC(Cc3ccccc3)CC2)cc1 [Compound 2l, 1-(4-(Benzylpiperidine)benzylidene)-2-phenylhydrazine] |  |  |  |  |  | MAO-A Inhibition % (hMAO-A; 10^−3 M): 74.251 ± 1.614%; MAO-A Inhibition % (hMAO-A; 10^−4 M): 44.828 ± 0.917%; MAO-B Inhibition % (hMAO-B; 10^−3 M): 45.194 ± 0.692%; MAO-B Inhibition % (hMAO-B; 10^−4 M): 28.560 ± 0.629%
4 | O=C(NCCN1CCOCC1)c1ccc(Cl)cc1 [Moclobemide, reference compound] |  | 82.1 ± 2.69% |  |  |  | inhibition at 10 µM (hMAO-A; 10^−5 M): 60.5 ± 2.56%; inhibition at 1 µM (hMAO-A; 10^−6 M): 36.2 ± 1.98%; inhibition at 0.1 µM (hMAO-A; 10^−7 M): 22.1 ± 1.34%; inhibition at 0.01 µM (hMAO-A; 10^−8 M): 18.2 ± 0.812%; inhibition at 0.001 µM (hMAO-A; 10^−9 M): 14.1 ± 0.725%
5 | C(=NNc1ccccc1)c1ccc(N2CCN(c3ccccc3)CC2)cc1 [Compound 2c, 1-(4-(4-Phenylpiperazine-1-yl)benzylidene)-2-phenylhydrazine] | 70.9 ± 1.06% | 43.2 ± 0.861% | 149.4 to 160.9 °C | 38.5 ± 0.732% | 34.7 ± 0.556% | 
6 | CN(C)CCCN1CCN(c2ccc(C=NNc3ccccc3)cc2)CC1 [Compound 2n] |  |  |  |  |  | MAO-A Inhibition % (hMAO-A; 10^−3 M): 64.435 ± 1.104%; MAO-A Inhibition % (hMAO-A; 10^−4 M): 36.154 ± 0.817%; MAO-B Inhibition % (hMAO-B; 10^−3 M): 40.629 ± 0.933%; MAO-B Inhibition % (hMAO-B; 10^−4 M): 29.068 ± 0.734%

Second part, led by results:

Row | inhibition at 1000 µM (hMAO-A; 10^−3 M) | inhibition at 100 µM (hMAO-A; 10^−4 M) | melting point | inhibition at 1000 µM (hMAO-B; 10^−3 M) | inhibition at 100 µM (hMAO-B; 10^−4 M) | Structure (SMILES) | further results
7 | 32.5 ± 0.844% | 25 ± 0.425% | 170.9 to 174.9 °C | 26.5 ± 0.478% | 19.4 ± 0.327% | COc1ccc(Oc2ccc(C=NNc3ccccc3)cc2)cc1 [Compound 2e, 1-(4-(4-Methoxyphenoxy)benzylidene)-2-phenylhydrazine] | 
8 | 28.6 ± 0.57% | 21 ± 0.548% | 132.3 to 133.9 °C | 30.2 ± 0.574% | 24.1 ± 0.355% | Fc1ccc(Sc2ccc(C=NNc3ccccc3)cc2)cc1 [Compound 2h, 1-(4-((4-Fluorophenyl)thio)benzylidene)-2-phenylhydrazine] | 
9 | 54.5 ± 1% | 20.4 ± 0.469% | 121.3 to 124.9 °C | 21.7 ± 0.52% | 17.1 ± 0.412% | Fc1ccc(Oc2ccc(C=NNc3ccccc3)cc2)cc1 [Compound 2g, 1-(4-(4-Fluorophenoxy)benzylidene)-2-phenylhydrazine] | 
10 | 40.9 ± 0.9% | 18.3 ± 0.618% | 201.9 to 208.9 °C | 38.2 ± 1.09% | 30.7 ± 0.707% | C(=NNc1ccccc1)c1ccc(-n2ccnc2)cc1 [Compound 2i, 1-(4-(1-Imidazolyl)benzylidene)-2-phenylhydrazine] | 
11 | 38.6 ± 0.743% | 33 ± 0.66% | 127.4 to 132.2 °C | 27.5 ± 0.633% | 22.1 ± 0.419% | C(=NNc1ccccc1)c1ccc(-n2cncn2)cc1 [Compound 2j, 1-(4-(1H-1,2,4-triazole-1-yl)benzylidene)-2-phenylhydrazine] | 
12 | 29.2 ± 0.672% | 21.5 ± 0.468% | 164.4 to 165.7 °C | 36.3 ± 0.774% | 19 ± 0.825% | Clc1ccc(Sc2ccc(C=NNc3ccccc3)cc2)cc1 [Compound 2k, 1-(4-((4-Chlorophenyl)thio)benzylidene)-2-phenylhydrazine] | 
13 | 30.5 ± 0.817% | 26.7 ± 0.748% | 178.1 to 184.3 °C | 33.3 ± 0.833% | 21.9 ± 0.416% | COc1ccc(Sc2ccc(C=NNc3ccccc3)cc2)cc1 [Compound 2f, 1-(4-((4-Methoxyphenyl)thio)benzylidene)-2-phenylhydrazine] | 
